Data set [1] in a line: Clearance in rat liver S9 fraction assessed as measuring per mg protein. It counts as ADME, subcellular. Particulars: read-out: CLH.
Data set [2] concerns the target T1, Cytoplasmic tyrosine-protein kinase BMX (Homo sapiens) (UniProt P51813).
T1 sequence (whole entry): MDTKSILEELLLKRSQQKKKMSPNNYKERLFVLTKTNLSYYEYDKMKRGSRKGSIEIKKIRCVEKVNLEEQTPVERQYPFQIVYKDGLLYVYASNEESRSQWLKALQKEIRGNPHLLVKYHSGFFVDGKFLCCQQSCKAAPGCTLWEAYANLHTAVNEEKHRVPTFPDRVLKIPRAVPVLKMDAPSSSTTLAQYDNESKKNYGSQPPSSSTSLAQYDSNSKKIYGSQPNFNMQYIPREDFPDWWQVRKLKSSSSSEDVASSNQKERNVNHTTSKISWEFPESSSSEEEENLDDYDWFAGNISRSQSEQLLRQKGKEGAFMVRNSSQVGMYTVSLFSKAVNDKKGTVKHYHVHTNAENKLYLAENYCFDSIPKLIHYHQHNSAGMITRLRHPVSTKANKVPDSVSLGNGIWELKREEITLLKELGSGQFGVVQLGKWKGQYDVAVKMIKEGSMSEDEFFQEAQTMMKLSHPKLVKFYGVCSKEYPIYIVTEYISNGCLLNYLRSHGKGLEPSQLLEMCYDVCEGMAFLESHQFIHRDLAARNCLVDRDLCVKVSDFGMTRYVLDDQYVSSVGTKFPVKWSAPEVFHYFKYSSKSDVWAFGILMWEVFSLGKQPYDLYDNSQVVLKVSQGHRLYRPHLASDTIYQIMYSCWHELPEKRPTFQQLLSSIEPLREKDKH
Briefly: Displacement of competitive tracer from BMX (unknown origin) assessed as target occupancy at […] preincubated for 15 mins measured for 6 hrs relative to control. Particulars: dose 1.5 µM.

The target of data set [3] is T2, Tyrosine-protein kinase ITK/TSK (Homo sapiens) (UniProt Q08881).
T2 sequence (whole entry): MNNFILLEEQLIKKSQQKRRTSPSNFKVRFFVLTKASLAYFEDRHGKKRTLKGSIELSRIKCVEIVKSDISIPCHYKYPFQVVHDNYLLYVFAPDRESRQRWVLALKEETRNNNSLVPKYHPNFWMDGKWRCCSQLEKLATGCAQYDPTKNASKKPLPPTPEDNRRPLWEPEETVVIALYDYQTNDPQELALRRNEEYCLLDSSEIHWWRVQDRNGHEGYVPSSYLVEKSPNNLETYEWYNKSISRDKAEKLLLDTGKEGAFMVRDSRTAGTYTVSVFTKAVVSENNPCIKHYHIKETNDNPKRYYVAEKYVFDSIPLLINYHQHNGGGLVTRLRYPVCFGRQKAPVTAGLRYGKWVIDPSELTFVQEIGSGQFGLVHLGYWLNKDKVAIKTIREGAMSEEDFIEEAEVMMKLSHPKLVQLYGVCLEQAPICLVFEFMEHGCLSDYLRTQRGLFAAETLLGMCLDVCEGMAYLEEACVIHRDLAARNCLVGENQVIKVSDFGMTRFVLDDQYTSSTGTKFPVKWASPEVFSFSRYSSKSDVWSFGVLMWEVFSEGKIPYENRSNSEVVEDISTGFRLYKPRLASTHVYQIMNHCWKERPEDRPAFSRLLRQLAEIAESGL
Kind of data set: Displacement of competitive tracer from ITK (unknown origin) assessed as target occupancy at […] preincubated for 15 mins measured for 6 hrs relative to control. Particulars: dose 1.5 µM.

The nature of data set [4]: Drug concentration in plasma of collagen-induced arthritis Lewis rat model 3 mg/kg/day, po measured after 12 hrs post-collection of plasma. The class given is ADME, organism-based. Particulars: in vivo, BLD = below limit of detection.
The nature of data set [5]: Inhibition of IL-2 production in TCR-stimulated T-cells in human whole blood. The class given is functional, tissue-based. The note with it: T-cell.
Data set [6] has as its target T1, Cytoplasmic tyrosine-protein kinase BMX (Homo sapiens). Kind of data set: Displacement of competitive tracer from BMX (unknown origin) assessed as target occupancy at […] preincubated for 15 mins measured for 24 hrs relative to control. The note with it: dose 1.5 µM.
For data set [7] the target is unchanged. Briefly: Displacement of competitive tracer from BMX (unknown origin) assessed as target occupancy at […] preincubated for 15 mins measured for 1 hr relative to control. Particulars: dose 1.5 µM.
Data set [8] can be described thus: Drug concentration in plasma of collagen-induced arthritis Lewis rat model 30 mg/kg/day, po measured after 12 hrs post-collection of plasma. It counts as ADME, organism-based.
The target in data set [9] is T3, Tyrosine-protein kinase TXK (Homo sapiens) (UniProt P42681).
T3 sequence (whole entry): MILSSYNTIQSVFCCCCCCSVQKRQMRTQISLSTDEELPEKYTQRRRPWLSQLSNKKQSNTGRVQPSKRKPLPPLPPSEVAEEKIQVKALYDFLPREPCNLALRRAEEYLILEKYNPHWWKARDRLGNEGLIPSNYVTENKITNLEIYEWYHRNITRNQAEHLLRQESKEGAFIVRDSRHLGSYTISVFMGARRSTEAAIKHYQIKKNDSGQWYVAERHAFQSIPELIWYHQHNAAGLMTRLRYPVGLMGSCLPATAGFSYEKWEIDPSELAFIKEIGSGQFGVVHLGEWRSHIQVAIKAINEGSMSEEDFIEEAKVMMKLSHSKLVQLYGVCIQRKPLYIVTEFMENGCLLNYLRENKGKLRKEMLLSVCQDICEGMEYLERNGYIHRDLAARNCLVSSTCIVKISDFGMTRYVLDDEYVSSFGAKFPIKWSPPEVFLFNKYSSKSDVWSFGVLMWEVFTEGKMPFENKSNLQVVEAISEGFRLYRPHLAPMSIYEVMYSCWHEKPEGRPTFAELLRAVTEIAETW
Briefly: Displacement of competitive tracer from RLK (unknown origin) assessed as target occupancy at […] preincubated for 15 mins measured for 1 hr relative to control. The note with it: dose 1.5 µM.

The source of these data is ChEMBL document CHEMBL5104103 (J Med Chem, 2022).

On to `CC(C)(C)/C=C(\C#N)C(=O)N1CCC[C@@H](n2nc(-c3ccc(Oc4ccccc4)cc3F)c3c(N)ncnc32)C1` [ATUZABRUTINIB], for which the microsomal CLint in data set [1] worked out at 54 µL/min/mg. Moreover, the Activity in data set [2] was 82%; in [3] it was 28%; in data set [6] it was 69%; in [7], 90%; in [9], 88%. Also, the Cp entry in data set [4] is on record as “Bld”. This compound also showed an IC50 in [5] of more than 5 µM. In data set [8], this compound came in with a concentration at 12 h of 51.8 ng/mL.

Broadly, the IC50 is the point on the concentration scale where inhibition reaches its midpoint. Low values mean greater potency, high ones weaker potency.
